Reference: patent US20140366440A1, “METHOD FOR PRODUCING CLONE SEEDLINGS” (OKAYAMA PREFECTURE, priority 2009, published 2014)

How the values were obtained:
E. uro-grandis B = assay: Rooting of cuttings, oxidized glutathione solution sprayed to phylloplane; assay type: in vivo, crossbreed of eucalyptus urophylla and eucalyptus grandis; settings: for Rooting rate (%): 88 test pieces; for Number of rooted shoots: of 88 test pieces
Description: Oxidized glutathione was applied to a phylloplane of a cutting. That is, the cutting was prepared in the same way as that in Example 5, except that a mother tree of the cutting was E. uro-grandis (Line name: B). Then a base of the cutting was planted to the supporter similar to Example 5. An oxidized glutathione solution was prepared in the same way as Example 5, and, immediately after the base was planted, the oxidized glutathione solution was sprayed to the phylloplane in the form of a mist by use of a spray etc. A spray amount of the glutathione solution was set to about 1.1 ml per shoot. A breeding condition after planting the shoot was similar to Example 5, and a rooting rate was calculated in the same way as Example 5.
A seedling was bred in the same way as Example 8, except that a solution having an oxidized glutathione concentration of 500 mg/L was used as the oxidized glutathione solution.
A seedling was bred in the same way as Example 8, except that a solution having an oxidized glutathione concentration of 1000 mg/L was used as the oxidized glutathione solution.

E. globulus (Clone B) = assay: Rooting of shoots with wounded base in rooting medium containing oxidized glutathione; assay type: in vivo, Eucalyptus globulus; settings: for Rooting rate (%): 9 test pieces; for Number of rooted shoots: of 9 test pieces
Description: A base of the shoot thus obtained was planted to a foaming phenolic resin porous supporter (Manufactured by Smithers-Oasis Company; Product name: Oasis). […] The base of the shoot was cultured for two months in carbon dioxide gas of 1000 ppm at a temperature of 25° C. under irradiation of red light having photosynthesis photon flux density of 51.3 μmol/m^2/S and having a wavelength component of 650 nm to 670 nm to a wavelength component of 450 nm to 470 nm at a ratio of 8.2:1.8. The culturing was carried out with a culture container, which was a cube container (maximum size of about 10 cm to 11.5 cm in length×10 cm to 11.5 cm in width×10.0 cm in height) having a shape whose bulge was slightly protruded. […] Carbon dioxide gas outside the culture container was allowed to enter the culture container through this carbon dioxide gas permeable membrane covering the opening. Accordingly, carbon dioxide gas concentration inside the culture container was about 1000 ppm due to the permeation of the carbon dioxide gas through the film covering the opening of the culture container. The culture container was irradiated with red light by use of a light irradiation device (Product name: CCFL unit, maker's name: Nippon Medical& Chemical Instruments CO., LTD.). Further, humidity in the culture container is adjusted by sealing the culture container with Parafilm.
Nine shoots were planted per culture container. A rooting rate was calculated from the number of test pieces of the shoot and the number of shoots (the number of rooted shoots) which had been rooted after the foliage was cultured for two months.
The culture was carried out in the same way as Example 1, except that genetically modified E. globulus (Line name: Clone B) was used and a base of the shoot was wounded by a pair of scissors. Note that the base of the shoot (the aforementioned cross-sectional surface) was cut in two directions orthogonal to each other by use of a pair of scissors, and therefore the base was wounded so as to have a cross-shaped wound seen from a front direction.

[1] = Example 9: 500 mg/L, sprayed to phylloplane
[2] = Example 10: 1000 mg/L, sprayed to phylloplane

oxidized glutathione
Rooting rate (%) (E. uro-grandis B; Example 8: 200 mg/L, sprayed to phylloplane (about 1.1 ml per shoot), three weeks): 54.5% | Number of rooted shoots (E. uro-grandis B; Example 8: 200 mg/L, sprayed to phylloplane): 48 | Rooting rate (%) (E. uro-grandis B; [1]): 59.1% | Number of rooted shoots (E. uro-grandis B; [1]): 52 | Rooting rate (%) (E. uro-grandis B; [2]): 60.2% | Number of rooted shoots (E. uro-grandis B; [2]): 53 | Rooting rate (%) (E. globulus (Clone B); Example 14: 25 mg/L in medium): 88.9% | Number of rooted shoots (E. globulus (Clone B); Example 14: 25 mg/L in medium): 8 | Rooting rate (%) (E. globulus (Clone B); Example 15: 75 mg/L in medium): 77.8% | Number of rooted shoots (E. globulus (Clone B); Example 15: 75 mg/L in medium): 7
